Bounds are passed on as bounds.

One experiment addresses T1, porcine pancreatic lipase (Sus scrofa, UniProt P00591).
T1 construct: gene PNLIP
T1 sequence (P00591 1-450): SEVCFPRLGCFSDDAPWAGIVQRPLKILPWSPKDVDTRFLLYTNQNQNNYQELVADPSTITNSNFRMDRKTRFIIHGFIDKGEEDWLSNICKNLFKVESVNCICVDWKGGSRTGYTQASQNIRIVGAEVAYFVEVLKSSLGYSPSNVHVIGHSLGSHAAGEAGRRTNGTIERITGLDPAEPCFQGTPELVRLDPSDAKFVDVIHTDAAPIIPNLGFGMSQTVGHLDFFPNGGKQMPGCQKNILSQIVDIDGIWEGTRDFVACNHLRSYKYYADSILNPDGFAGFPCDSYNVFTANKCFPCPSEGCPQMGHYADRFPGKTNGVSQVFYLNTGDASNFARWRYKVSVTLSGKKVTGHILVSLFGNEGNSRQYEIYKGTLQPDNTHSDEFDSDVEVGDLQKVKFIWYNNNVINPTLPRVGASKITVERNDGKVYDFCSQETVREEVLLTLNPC
Nature of the experiment: p-nitrophenyl butyrate hydrolysis assay, % inhibition at […]. It counts as biochemical.
As a reminder, the inhibition is the drop in the measured response relative to a control, in per cent. `CC1(C)C=Cc2c(cc3occ(-c4ccc(O)c(O)c4)c(=O)c3c2O)O1` [compound 15, 5,3',4'-trihydroxy-6'',6''-dimethylpyrano-[2'',3'';7,6]isoflavone]: the inhibition at 100 µM is more than 50%.
The same measure, in the same setting: to `O=c1c(-c2ccc(O)cc2)coc2cc(O)cc(O)c12` [compound 1, genistein] belongs 60.7%.
Turning to `CC1(C)C=Cc2c(cc(O)c3c(=O)c(-c4ccc(O)cc4)coc23)O1` [compound 17, derrone], the inhibition at 100 µM was determined as 68.2%.
Same read-out and setting: the value for `CC(C)=CCc1c(O)cc2occ(-c3ccc(O)cc3)c(=O)c2c1O` [compound 9, wighteone] was 65.7%; that for `CC(C)=CCc1c(O)c(CC=C(C)C)c2occ(-c3ccc(O)c(O)c3)c(=O)c2c1O` [compound 12, 5,7,3',4'-tetrahydroxy-6-8-diprenylisoflavone] was 92.8%; that for `CC(C)=CCc1c2c(c(O)c3c(=O)c(-c4ccc(O)cc4)coc13)C=CC(C)(C)O2` [compound 16, scandenone] was more than 50%.

A further experiment has as its target T1, porcine pancreatic lipase. Nature of the experiment: p-nitrophenyl butyrate hydrolysis assay; Lineweaver-Burk analysis. The format is biochemical.
Broadly, the IC50 is the concentration at which inhibition is half-maximal. A high value points to a need for much substance. For the compound `CC1(C)C=Cc2c(cc(O)c3c(=O)c(-c4ccc(O)c(O)c4)coc23)O1` [compound 19, 5,3',4'-trihydroxy-2", 2"-dimethylpyrano (5",6":7,8) isoflavone], the IC50 is 16.8 µM.

For the origin of these results see publication PMC5333804, “Comparison of pancreatic lipase inhibitory isoflavonoids from unripe and ripe fruits of Cudrania tricuspidata” (PLoS ONE, 2017).
